Read-outs that look alike come from different tables or passages of the source.
Key:
[1] = set-up: method as in PMID 26042808; settings: cited from earlier work
[2] = test system: transgenic Alzheimer's disease female mice; set-up: method as in PMID 27345857; settings: cited from earlier work
[3] = test system: neuroblastoma SH-SY5Y cell line; set-up: method as in doi:10.1016/j.crci.2013.07.003; settings: read-out: Calcium antagonistic properties, IC50, SH-SY5Y; cited from earlier work
[4] = test system: vascular smooth muscle A7R5 cell line; set-up: method as in doi:10.1016/j.crci.2013.07.003; settings: read-out: Calcium antagonistic properties, IC50, A7R5; cited from earlier work
[5] = Determination of critical aggregation concentration (CAC) by DLS; format: physicochemical; settings: aqueous media
Procedure: The critical aggregation concentrations (CAC) of 4-(N-alkylpyridinium)-1,4-DHP derivatives were determined in aqueous media using a Zetasizer Nano S90 (Malvern Panalytical Ltd., Malvern, UK) instrument with Malvern Instruments Ltd. Software according to procedure described by Topel et al. and modified by our group. Briefly, as stock solutions of tested compounds were used, samples were prepared for self-assembling experiments. All of the subsequent samples were prepared starting from the concentrated stock solution, which was subjected to a serial two-fold dilution each time with water. The intensity values of scattered light (kcps) as a function of concentration of amphiphiles were analysed. The scattering intensities detected for amphiphile concentrations below CAC have an approximately constant value corresponding to water. The intensity starts to show a linear increase with concentration at the CAC, since the amount of nanoparticles increases in the solution. The intersection of the best-fit lines drawn through the data points is the preliminary CAC value of the compounds.

[6] = Basal cytotoxicity test (neutral red uptake) with estimation of LD50 from IC50; format: cell-based, mouse; settings: mouse, NIH 3T3 fibroblast cells
Procedure: The neutral red uptake (NRU) assay was performed according to the standard protocol of Stokes modified by NICEATM-ECVAM validation study. The NRU cytotoxicity assay procedure was based on the ability of viable cells to incorporate and bind neutral red, which is a supravital dye.
NIH 3T3 (Mouse Swiss Albino embryo fibroblast) cells (9000 cells/well) were placed into 96-well plates for 24 h in DMEM medium containing 5% fetal bovine serum (FBS). Then, they were exposed to the test compound over a range of seven concentrations (1000 μg/mL, 316 μg/mL, 100 μg/mL, 31 μg/mL, 10 μg/mL, 3.0 μg/mL, and 1.0 μg/mL) for 24 h. Untreated cells were used as a control. After 24 h, the medium was removed from all plates. Then, 250 μL of neutral red (NR) solution was added (0.05 mg/mL NR in DMEM 24 h pre-incubated at 37 °C and then filtered before use through a 0.22-µm syringe filter). Plates were incubated for 3 h, and then, cells were washed three times with phosphate buffered saline (PBS). The dye within viable cells was released by extraction with a mixture of acetic acid, ethanol, and water (1:50:49). The absorbance of neutral red was measured using a spectrophotometer multiplate reader Infinite M1000 (Tecan Austria GmbH, Salzburg, Austria) at 540 nm. The optical density (OD) was calculated using the formula: OD (treated cells) × 100/OD (control cells). The IC50 values were calculated using the program Graph Pad Prism® 3.0.
Data from the in vitro tests were used for estimating the starting dose for acute oral systemic toxicity tests in rodent. The in vivo starting dose is an estimated LD50 value that is calculated by inserting the in vitro IC50 value into a regression formula: log LD50 (mM/kg) = 0.439 log IC50 (mM) + 0.621 [29]. The value is recalculated to mg/kg, and compounds are evaluated in accordance with four toxicity categories: category 1: LD50 ≤ 5 mg/kg (highly toxic); category 2: 5 < LD50 ≤ 50 mg/kg (moderately toxic); category 3: 50 < LD50 ≤ 300 mg/kg (slightly toxic); category 4: 300 < LD50 ≤ 2000 mg/kg (practically non-toxic). Using an alternative in vitro method enables comparing the possible toxicity of new compounds and selecting compounds for further study, which will vastly reduce the number of animal experiments.

[7] = test system: HT-1080 (human connective tissue fibrosarcoma) cells; test: MTT cytotoxicity assay on HT-1080 tumor cells, 72 h; format: cell-based; settings: MTT, 72 h; ne = no effect in the tested concentration (up to 100 μg/mL)
Procedure: Tumor cell lines HT-1080 (human connective tissue fibrosarcoma) and MH-22A (mouse hepatocarcinoma) were used. All of the cells were obtained from the American Type Culture Collection ((ATCC,) Rockville, MD, USA). HT-1080 and MH-22A cells (4 × 10^4 cell/mL) were seeded in 96-well plates in Dulbecco’s modified Eagle’s medium (DMEM) containing 10% fetal bovine serum and cultivated for 72 h at 37 °C, 5% CO2 by exposure to different compounds concentrations (100 μg/mL, 25 μg/mL, 6.25 μg/mL, and 1.56 μg/mL). Cell viability was measured using 3-(4,5-dimethylthiazol-2-yl)-2,5-diphenyl-tetrazolium bromide (MTT) assay. In brief, after incubating with compounds, the culture medium was removed and fresh medium with 0.2 mg/mL MTT was added in each well of the plate. After incubation (3 h, 37 °C, 5% CO2), the medium with MTT was removed, and 200 μL of DMSO was added at once to each sample. The samples were tested at 540 nm on a Tecan multiplate reader Infinite1000 (Tecan Austria GmbH, Salzburg, Austria). The IC50 was calculated using the program Graph Pad Prism® 3.0.

[8] = category by estimated LD50 (mg/kg), read-out: Toxicity category from estimated LD50

Row | Structure (SMILES) | Blood–brain barrier crossing [1] | Memory-improving anxiolytic effects [2] | IC50 [3] [µM] | IC50 [4] [µM] | CAC [5] [µM] | LD50 at 24 h [6, 8] [mg/kg] | Cytotoxicity IC50, HT-1080 [7] | LD50 at 24 h ([6]; calculated from NIH 3T3 NRU IC50, recalculated to mg/kg, read-out: Basal Cytotoxicity Estimated LD50) [mg/kg] | IC50 [7] [µM]
1 | CCCCCCCCCCCC[n+]1cccc(C2C(C(=O)OCC)=C(C)NC(C)=C2C(=O)OCC)c1 [Compound 3] | crossed the blood–brain barrier | memory-improving anxiolytic effects | 5 to 14 | 0.6 to 0.7 | 9.3 |  |  |  | 
2 | C#CCN1C(C)=C(C(=O)OCC)C(c2ccc[n+](CCCCCCCCCCCC)c2)C(C(=O)OCC)=C1C [Compound 6] |  |  | 5 to 14 | 0.6 to 0.7 | 43.3 | 50 to 300 |  |  | 
3 | C#CCOC(=O)C1=C(C)NC(C)=C(C(=O)OCC#C)C1c1ccc[n+](CC)c1 [Compound 7] |  |  |  |  |  |  | did not demonstrate any cytotoxic effect and ne | > 2700 | 
4 | C#CCOC(=O)C1=C(C)NC(C)=C(C(=O)OCC#C)C1c1ccc[n+](CCCCCCCCCCCC)c1 [Compound 9] |  |  |  |  | 9.3 | 50 to 300 |  |  | 2 ± 0.2
